The target in series [1] is T1, variant human OCT1*2 (M420del) (Homo sapiens, UniProt O15245, DEL420-420).
T1 construct: expressed in transfected cells
T1 sequence (O15245 with tags, fused parts or gaps DEL420-420): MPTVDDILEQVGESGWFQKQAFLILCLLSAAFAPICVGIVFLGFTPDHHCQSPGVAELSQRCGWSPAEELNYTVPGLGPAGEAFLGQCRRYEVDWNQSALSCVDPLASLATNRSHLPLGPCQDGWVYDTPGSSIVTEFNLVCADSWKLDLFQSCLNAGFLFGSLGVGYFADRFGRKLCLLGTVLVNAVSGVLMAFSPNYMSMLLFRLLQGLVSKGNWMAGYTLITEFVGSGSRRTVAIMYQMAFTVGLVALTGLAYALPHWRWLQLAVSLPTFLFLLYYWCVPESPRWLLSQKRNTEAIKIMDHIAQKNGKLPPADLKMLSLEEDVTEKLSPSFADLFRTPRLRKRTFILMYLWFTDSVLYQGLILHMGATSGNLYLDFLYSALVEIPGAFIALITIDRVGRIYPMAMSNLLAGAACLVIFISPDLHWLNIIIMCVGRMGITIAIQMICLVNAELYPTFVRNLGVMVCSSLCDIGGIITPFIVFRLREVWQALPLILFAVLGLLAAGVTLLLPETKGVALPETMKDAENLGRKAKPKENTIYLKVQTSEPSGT
Nature of the series: Cellular uptake by HEK293 cells overexpressing OCT1*2. The class given is cell-based. To be noted: for uptake by OCT1*2 in comparison to OCT1*1: 1 µM substance; for uptake of prostaglandins by OCT1*2 in comparison to wild-type: 1, 10 and 100 µM, 120 s. As to the method:
The wild-type cell lines of OCT1 and OCT2, as well as the variant cell lines OCT1*2 and *3, were generated using the Flp-In system (Thermo Fisher Scientific, Darmstadt, Germany) as described in previous publications. The cell line overexpressing OCT3 was a kind gift from Dr. Koepsell and Dr. Gorbulev (University of Würzburg, Germany). Cells transfected with the empty pcDNA5/FRT vector were used for the transport experiments as a control cell line. All cells were cultured approximately up to passage 30.
Forty-eight hours before the transport experiments, 600,000 cells were plated on 12-well plates pre-coated with poly-D-lysine and incubated at 37 °C with 5% CO2. The prepared 12-well plate with cells was positioned on a heating plate pre-warmed to 37 °C. After removing the medium, the cells were washed with 37 °C HBSS+ (10 mM HEPES in Hank’s balanced salt solution, pH 7.4). Then, one pre-defined concentration of a substrate was added to each well. The incubation period was stopped by adding 2 mL of 4 °C HBSS+ and removing the cells from the heating plate. The cells were washed twice with 4 °C HBSS+. For cell lysis, the cells were incubated for 15 min with 500 µL of 80% acetonitrile (LGC Standards, Wesel, Germany), which contained a respective internal standard (Table 1).
For concentration-dependent transport, the cells were incubated with defined substrate concentrations (0.1, 1, 10, 30, 100, 300, 600, 1000 µM) for the respective pre-defined incubation times. […] The uptake by a transporter was normalised to the uptake by empty vector-transfected cells. […] The results of transport experiments were normalized to the total protein concentration per well. Total protein quantification was performed using a bicinchoninic acid assay with bovine serum albumin as standard.
The ratios of cellular uptake were calculated by dividing the total uptake of transporter-overexpressing cells by the total uptake into empty vector transfected cells. The concentration-dependent cellular net uptake was used for analysis of transport kinetics by subtracting for each substrate concentration the uptake of empty vector-transfected cells from the uptake of transporter-overexpressing cells. […] The intrinsic clearance Clint was expressed with the ratio of Vmax and KM.

A further series deals with T2, human OCT1*1 (wild-type) (Homo sapiens, UniProt O15245).
T2 sequence (O15245 1-554): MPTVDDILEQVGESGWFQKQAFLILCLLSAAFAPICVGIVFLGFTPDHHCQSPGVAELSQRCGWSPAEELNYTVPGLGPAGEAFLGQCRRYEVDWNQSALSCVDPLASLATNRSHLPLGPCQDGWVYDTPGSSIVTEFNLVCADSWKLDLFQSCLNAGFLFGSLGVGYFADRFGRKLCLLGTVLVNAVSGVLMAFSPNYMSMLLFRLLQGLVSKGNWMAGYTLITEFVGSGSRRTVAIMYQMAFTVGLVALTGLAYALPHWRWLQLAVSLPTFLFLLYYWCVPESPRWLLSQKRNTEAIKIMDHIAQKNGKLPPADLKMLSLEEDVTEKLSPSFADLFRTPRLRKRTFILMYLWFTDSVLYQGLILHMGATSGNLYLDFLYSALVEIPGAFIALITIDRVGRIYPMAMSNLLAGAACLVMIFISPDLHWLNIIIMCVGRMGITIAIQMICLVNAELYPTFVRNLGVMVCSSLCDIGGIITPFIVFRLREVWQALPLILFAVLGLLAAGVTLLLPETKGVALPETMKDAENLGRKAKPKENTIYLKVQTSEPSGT
Nature of the series: Concentration-dependent uptake (transport kinetics) in HEK293 cells overexpressing OCT1 wild-type. To be noted: for OCT1 substrate classification from concentration-dependent uptake: good >5, poor 1–5, non-substrate <1 µL/mg protein/min or uptake not above empty vector; for Clint (±SEM): intrinsic clearance = ratio of Vmax and KM, OCT1 wild-type; for Vmax (±SEM): net uptake (OCT1 minus empty vector), HEK293, 0.1-1000 µM substrate, Michaelis–Menten.

SMILES strings stand for the structures. “And” between values parts separate entries of the source, which are not always exact repeats. Identical values can stand only once.

The values below come from publication PMC9687798, “Atypical Substrates of the Organic Cation Transporter 1” (Biomolecules, 2022).

For the compound `N=C(N)c1ccc(OCCCCCOc2ccc(C(=N)N)cc2)cc1` [Pentamidine, pentamidine], the “uptake by OCT1*2 in comparison to OCT1*1” value in series [1] was “to a small extent”. Moreover, on human OCT1*1 (wild-type), the “OCT1 substrate classification from concentration-dependent uptake” value (shortened to “OCT1 substrate classification”) is “poor substrate of OCT1”; the “Clint (±SEM)” value was 1.15 µL/mg Protein/min and 1.15 ± 1.75 µL/mg Protein/min; the “Vmax (±SEM)” value worked out at 143 ± 63.1 pmol/mg Protein/min.
As for `CCCCC[C@H](O)/C=C/[C@H]1[C@H](O)CC(=O)[C@@H]1C/C=C\CCCC(=O)O` [Prostaglandin E2, prostaglandin E2], the “uptake of prostaglandins by OCT1*2 in comparison to wild-type” value in series [1] is on record as “reduced to the level of the control cell line”. Moreover, on human OCT1*1 (wild-type), the “OCT1 substrate classification” value is recorded as “(poor) substrates of OCT1”, the “Clint (±SEM)” value is 3.50 ± 3.42 µL/mg Protein/min and the “Vmax (±SEM)” value came to 4119 pmol/mg Protein/min. Besides, the “Clint (±SEM)” value on human OCT1*1 (wild-type) (listed as prostaglandin E2) amounted to 3.5 µL/mg Protein/min.
In the case of `CCCCC[C@H](O)/C=C/[C@@H]1[C@@H](C/C=C\CCCC(=O)O)[C@@H](O)C[C@H]1O` [Prostaglandin F2α, prostaglandin F2α], in series [1], the “uptake of prostaglandins by OCT1*2 in comparison to wild-type” value is given as “reduced to the level of the control cell line”. Moreover, on human OCT1*1 (wild-type), the “OCT1 substrate classification” value is listed as “(poor) substrates of OCT1”, the “Clint (±SEM)” value came to 1.40 ± 1.09 µL/mg Protein/min and the “Vmax (±SEM)” value is 1007 pmol/mg Protein/min. For the same compound, the “Clint (±SEM)” value on human OCT1*1 (wild-type) (listed as prostaglandin F2α) came out at 1.4 µL/mg Protein/min.
On to `N[C@@H](Cc1ccc(O)c(O)c1)C(=O)O` [Levodopa, levodopa], for which the results for the “Clint (±SEM)” value at human OCT1*1 (wild-type) and on human OCT1*1 (wild-type) (listed as levodopa) were 13.8 ± 8.6 µL/mg Protein/min and 13.8 µL/mg Protein/min, respectively. Besides, the “Vmax (±SEM)” value at human OCT1*1 (wild-type) is 4993 ± 884 pmol/mg Protein/min.
Consider `COc1cc(Cc2cnc(N)nc2N)cc(OC)c1OC` [Trimethoprim, trimethoprim], for which the “uptake by OCT1*2 in comparison to OCT1*1” value in series [1] is “reduction in uptake”. Moreover, the “Vmax (±SEM)” value on human OCT1*1 (wild-type) stood at 300 ± 16.9 pmol/mg Protein/min.
With `Nc1nc(=O)n([C@@H]2CS[C@H](CO)O2)cc1F` [Emtricitabine, emtricitabine], the “uptake by OCT1*2 in comparison to OCT1*1” value in series [1] is “reduction in uptake”. Moreover, the “Clint (±SEM)” value is 6.15 ± 2.82 µL/mg Protein/min on human OCT1*1 (wild-type) and 6.15 µL/mg Protein/min at human OCT1*1 (wild-type) (listed as emtricitabine).
In the case of `Nc1ccn([C@H]2CC[C@@H](CO)O2)c(=O)n1` [Zalcitabine, zalcitabine], in series [1], the “uptake by OCT1*2 in comparison to OCT1*1” value is recorded as “reduction in uptake”. In addition, on human OCT1*1 (wild-type), the “OCT1 substrate classification” value is “poor transport efficiency” and the “Clint (±SEM)” value came out at 2.57 ± 0.65 µL/mg Protein/min.
